ChEMBL document CHEMBL1136559, “Discovery, SAR, synthesis, pharmacokinetic and biochemical characterization of A-192411: a novel fungicidal lipopeptide-(I)” (Bioorg Med Chem Lett, 2003)
≈ marks a conversion by molar mass, not a printed value. Starred links: 1 amine or outer side, 2 acyl side, 3 side chain; linkers in the order of their positions; H or OH if unused. Positions of bridges follow the written chain, without caps; N, C: chain ends. Non-standard residues stand in square brackets, D forms with d. Residues, ends and D or L forms follow the SMILES beside them. *: point of attachment. pTerphenylCO(4''-OnC5H11) = CCCCCOc1ccc(-c2ccc(-c3ccc(C(=O)*)cc3)cc2)cc1; Pro(cis-4-guanidino) = NC(N)=N[C@@H]1CN[C@H](C(=O)O)C1; hTyr(3-COCH2NH2) = NCC(=O)c1cc(CC[C@H](N)C(=O)O)ccc1O; X1 = NCC(=O)Nc1cc(CC[C@H](N[*:1])C(=O)[*:2])ccc1O; X4 = NCCC(=O)c1cc(CC[C@H](N[*:1])C(=O)[*:2])ccc1O; X2 = NC(N)=N[C@H]1CC(C(=O)[*:2])N([*:1])C1; Pro(4S-NH2) = N[C@@H]1CN[C@H](C(=O)O)C1; Hyp = O=C(O)[C@@H]1C[C@@H](O)CN1; Orn = NCCC[C@H](N)C(=O)O

What was measured:
[1] = system: Candida albicans; test: Antifungal activity against Candida albicans CAF-2; assay type: functional
[2] = system: Candida albicans; test: Antifungal activity against Candida albicans ATCC 10231; assay type: functional
[3] = system: Kluyveromyces marxianus; test: Antifungal activity against Candida kefyr ATCC 28838; assay type: functional
[4] = system: Candida albicans; test: Antifungal activity against Candida albicans ATCC 38247; assay type: functional
[5] = system: Candida albicans; test: Antifungal activity against Candida albicans ATCC 62376; assay type: functional
[6] = system: [Candida] zeylanoides; test: Antifungal activity against Candida zeylanoides NRRL Y-112; assay type: functional
[7] = system: Nakaseomyces glabratus; test: Antifungal activity against Torulopsis glabrata ATCC 15545; assay type: functional
[8] = system: Naganishia albida; test: Antifungal activity against Cryptococcus albidus ATCC 34140; assay type: functional
[9] = system: Candida albicans; test: Antifungal activity against Candida albicans 579A; assay type: functional
[10] = system: Aspergillus niger; test: Antifungal activity against Aspergillus niger ATCC 16404; assay type: functional
[11] = system: Candida albicans; test: Antifungal activity against Candida albicans CCH 442; assay type: functional
[12] = Half-life was measured in monkey after an iv dose of 1 mg/kg; assay type: ADME, organism-based; design: dose 1 mg/kg, route intravenous; details: cercopithecidae, in vivo
[13] = Area under the curve was measured in mouse after an iv dose of 1 mg/kg; assay type: ADME, organism-based; design: dose 1 mg/kg, route intravenous; details: in vivo
[14] = Plasma clearance for the compound was measured in mouse after an iv dose of 1 mg/kg; assay type: ADME, organism-based; design: dose 1 mg/kg, route intravenous; details: read-out: Clp (converted)
[15] = Area under the curve was measured in rat after an iv dose of 1 mg/kg; assay type: ADME, organism-based; design: dose 1 mg/kg, route intravenous; details: in vivo
[16] = Plasma clearance for the compound was measured in dog after an iv dose of 1 mg/kg; assay type: ADME, organism-based, Canis lupus familiaris; design: dose 1 mg/kg, route intravenous; details: read-out: Clp (converted)
[17] = Plasma clearance for the compound was measured in rat after an iv dose of 1 mg/kg; assay type: ADME, organism-based; design: dose 1 mg/kg, route intravenous; details: read-out: Clp (converted)
[18] = Half-life was measured in rat after an iv dose of 1 mg/kg; assay type: ADME, organism-based; design: dose 1 mg/kg, route intravenous; details: in vivo
[19] = Half-life was measured in mouse after an iv dose of 1 mg/kg; assay type: ADME, organism-based; design: dose 1 mg/kg, route intravenous; details: in vivo
[20] = Area under the curve was measured in dog after an iv dose of 1 mg/kg; assay type: ADME, organism-based, Canis lupus familiaris; design: dose 1 mg/kg, route intravenous; details: in vivo
[21] = Terminal phase volume of distribution was measured in mouse after an iv dose of 1 mg/kg; assay type: ADME, organism-based; design: dose 1 mg/kg, route intravenous; details: in vivo, read-out: Va beta
[22] = Plasma clearance for the compound was measured in monkey after an iv dose of 1 mg/kg; assay type: ADME, organism-based; design: dose 1 mg/kg, route intravenous; details: cercopithecidae, read-out: Clp (converted)
[23] = Volume of distribution was measured in mouse after an iv dose of 1 mg/kg; assay type: ADME, organism-based; design: dose 1 mg/kg, route intravenous; details: in vivo, read-out: Vv
[24] = Terminal phase volume of distribution was measured in dog after an iv dose of 1 mg/kg; assay type: ADME, organism-based, Canis lupus familiaris; design: dose 1 mg/kg, route intravenous; details: in vivo, read-out: Va beta
[25] = Volume of distribution was measured in rat after an iv dose of 1 mg/kg; assay type: ADME, organism-based; design: dose 1 mg/kg, route intravenous; details: in vivo, read-out: Vv
[26] = Volume of distribution was measured in dog after an iv dose of 1 mg/kg; assay type: ADME, organism-based, Canis lupus familiaris; design: dose 1 mg/kg, route intravenous; details: in vivo, read-out: Vv
[27] = Half-life was measured in dog after an iv dose of 1 mg/kg; assay type: ADME, organism-based, Canis lupus familiaris; design: dose 1 mg/kg, route intravenous; details: in vivo
[28] = Area under the curve was measured in monkey after an iv dose of 1 mg/kg; assay type: ADME, organism-based; design: dose 1 mg/kg, route intravenous; details: cercopithecidae, in vivo
[29] = Volume of distribution was measured in monkey after an iv dose of 1 mg/kg; assay type: ADME, organism-based; design: dose 1 mg/kg, route intravenous; details: cercopithecidae, in vivo, read-out: Vv
[30] = Terminal phase volume of distribution was measured in monkey after an iv dose of 1 mg/kg; assay type: ADME, organism-based; design: dose 1 mg/kg, route intravenous; details: cercopithecidae, in vivo, read-out: Va beta
[31] = Terminal phase volume of distribution was measured in rat after an iv dose of 1 mg/kg; assay type: ADME, organism-based; design: dose 1 mg/kg, route intravenous; details: in vivo, read-out: Va beta
[32] = Candida albicans, read-out: MIC
[33] = Kluyveromyces marxianus, ATCC 28838, read-out: MIC
[34] = Candida albicans, ATCC 62376, read-out: MIC
[35] = Nakaseomyces glabratus, ATCC 15545, read-out: MIC
[36] = Naganishia albida, ATCC 34140, read-out: MIC
[37] = Aspergillus niger, ATCC 16404, read-out: MIC
[38] = Candida albicans, ATCC 10231, read-out: MIC
[39] = Candida albicans, ATCC 38247, read-out: MIC
[40] = Dujonia zeylanoides, read-out: MIC

CCCCCOc1ccc(-c2ccc(-c3ccc(C(=O)N[C@H]4CCCNC(=O)[C@@H]5C[C@H](N=C(N)N)CN5C(=O)[C@H]([C@@H](C)O)NC(=O)[C@H](CCc5ccc(O)c(C(=O)CN)c5)NC(=O)[C@@H]5C[C@@H](O)CN5C(=O)[C@H]([C@@H](C)O)NC4=O)cc3)cc2)cc1 (stereo in doubt; 1)
MIC [1, 32]: 0.2 µg/mL (≈ 0.172 µM) | MIC [2]: 0.2 µg/mL (≈ 0.172 µM) | MIC [3, 33]: 1.56 µg/mL (≈ 1.34 µM) | MIC [4]: 0.2 µg/mL (≈ 0.172 µM) | MIC [5, 34]: 0.2 µg/mL (≈ 0.172 µM) | MIC [6]: 0.39 µg/mL (≈ 0.336 µM) | MIC [7, 35]: 1.56 µg/mL (≈ 1.34 µM) | MIC [8, 36]: 12.5 µg/mL (≈ 10.8 µM) | MIC [9, 32]: 0.2 µg/mL (≈ 0.172 µM) | MIC [10, 37]: 6.25 µg/mL (≈ 5.39 µM) | MIC [11]: 0.2 µg/mL (≈ 0.172 µM)

CCCCCOc1ccc(-c2ccc(-c3ccc(C(=O)N[C@H]4CCCNC(=O)[C@@H]5C[C@H](N=C(N)N)CN5C(=O)[C@H]([C@@H](C)O)NC(=O)[C@H](CCc5ccc(O)c(C(=O)CN)c5)NC(=O)[C@@H]5C[C@@H](O)CN5C(=O)[C@H]([C@@H](C)O)NC4=O)cc3)cc2)cc1 (stereo in doubt; 4)
MIC [1]: 0.39 µg/mL (≈ 0.336 µM) | MIC [2]: 0.78 µg/mL (≈ 0.672 µM) | MIC [3]: 0.78 µg/mL (≈ 0.672 µM) | MIC [4]: 0.78 µg/mL (≈ 0.672 µM) | MIC [5]: 0.39 µg/mL (≈ 0.336 µM) | MIC [6]: 1.56 µg/mL (≈ 1.34 µM) | MIC [7]: 1.56 µg/mL (≈ 1.34 µM) | MIC [8]: 6.25 µg/mL (≈ 5.39 µM) | MIC [9]: 0.39 µg/mL (≈ 0.336 µM) | MIC [10]: 6.25 µg/mL (≈ 5.39 µM) | MIC [11]: 0.78 µg/mL (≈ 0.672 µM)

CCCCCOc1ccc(-c2ccc(-c3ccc(C(=O)N[C@H]4CCCNC(=O)[C@@H]5C[C@H](N=C(N)N)CN5C(=O)[C@H]([C@@H](C)O)NC(=O)[C@H](CCc5ccc(O)c(C(=O)CN)c5)NC(=O)[C@@H]5CCCN5C(=O)[C@H]([C@@H](C)O)NC4=O)cc3)cc2)cc1 ({pTerphenylCO(4''-OnC5H11)}-[Orn]TP[hTyr(3-COCH2NH2)]T[Pro(cis-4-guanidino)]; lactam 1-C)
MIC [1, 32]: 0.1 µg/mL (≈ 0.0874 µM) | MIC [2, 38]: 0.39 µg/mL (≈ 0.341 µM) | MIC [3, 33]: 1.56 µg/mL (≈ 1.36 µM) | MIC [4, 39]: 0.39 µg/mL (≈ 0.341 µM) | MIC [5, 34]: 0.2 µg/mL (≈ 0.175 µM) | MIC [6, 40]: 0.39 µg/mL (≈ 0.341 µM) | MIC [7, 35]: 0.39 µg/mL (≈ 0.341 µM) | MIC [8, 36]: 25 µg/mL (≈ 21.8 µM) | MIC [9, 32]: 0.2 µg/mL (≈ 0.175 µM) | MIC [10, 37]: 25 µg/mL (≈ 21.8 µM) | MIC [11, 32]: 0.2 µg/mL (≈ 0.175 µM)

CCCCCOc1ccc(-c2ccc(-c3ccc(C(=O)N[C@H]4CCCNC(=O)C5C[C@H](N=C(N)N)CN5C(=O)[C@H]([C@@H](C)O)NC(=O)[C@H](CCc5ccc(O)c(NC(=O)CN)c5)NC(=O)[C@@H]5C[C@@H](O)CN5C(=O)[C@H]([C@@H](C)O)NC4=O)cc3)cc2)cc1 (stereo not given in full) ({pTerphenylCO(4''-OnC5H11)}-[Orn]T[Hyp][X1]T[X2]; lactam 1-C)
half-life [12]: 3.3 h | AUC [13]: 16800 ng·h/mL | clearance [14]: 1 mL/min/kg | AUC [15]: 11700 ng·h/mL | clearance [16]: 0.5 mL/min/kg | clearance [17]: 2.33 mL/min/kg | half-life [18]: 7.4 h | half-life [19]: 11.5 h | AUC [20]: 36400 ng·h/mL | Vd [21]: 1 L/kg | clearance [22]: 2.83 mL/min/kg | Vd [23]: 0.4 L/kg | Vd [24]: 1.3 L/kg | Vd [25]: 0.6 L/kg | Vd [26]: 0.6 L/kg | half-life [27]: 30.4 h | AUC [28]: 6550 ng·h/mL | Vd [29]: 0.2 L/kg | Vd [30]: 0.9 L/kg | Vd [31]: 2.2 L/kg

CCCCCOc1ccc(-c2ccc(-c3ccc(C(=O)N[C@H]4CCCNC(=O)[C@@H]5C[C@H](N=C(N)N)CN5C(=O)[C@H]([C@@H](C)O)NC(=O)[C@H](CCc5ccc(O)c(C(=O)CCN)c5)NC(=O)[C@@H]5C[C@@H](O)CN5C(=O)[C@H]([C@@H](C)O)NC4=O)cc3)cc2)cc1 ({pTerphenylCO(4''-OnC5H11)}-[Orn]T[Hyp][X4]T[Pro(cis-4-guanidino)]; lactam 1-C)
MIC [1, 32]: 0.2 µg/mL (≈ 0.17 µM) | MIC [2, 38]: 0.39 µg/mL (≈ 0.332 µM) | MIC [3, 33]: 1.56 µg/mL (≈ 1.33 µM) | MIC [4, 39]: 0.2 µg/mL (≈ 0.17 µM) | MIC [5, 34]: 0.2 µg/mL (≈ 0.17 µM) | MIC [6, 40]: 0.39 µg/mL (≈ 0.332 µM) | MIC [7, 35]: 1.56 µg/mL (≈ 1.33 µM) | MIC [8, 36]: 12.5 µg/mL (≈ 10.6 µM) | MIC [9, 32]: 0.2 µg/mL (≈ 0.17 µM) | MIC [10, 37]: 6.25 µg/mL (≈ 5.32 µM) | MIC [11, 32]: 0.2 µg/mL (≈ 0.17 µM)

CCCCCOc1ccc(-c2ccc(-c3ccc(C(=O)N[C@H]4CCCNC(=O)[C@@H]5C[C@H](N)CN5C(=O)[C@H]([C@@H](C)O)NC(=O)[C@H](CCc5ccc(O)c(C(=O)CN)c5)NC(=O)[C@@H]5C[C@@H](O)CN5C(=O)[C@H]([C@@H](C)O)NC4=O)cc3)cc2)cc1 ({pTerphenylCO(4''-OnC5H11)}-[Orn]T[Hyp][hTyr(3-COCH2NH2)]T[Pro(4S-NH2)]; lactam 1-C)
MIC [1, 32]: 0.1 µg/mL (≈ 0.0894 µM) | MIC [2, 38]: 0.1 µg/mL (≈ 0.0894 µM) | MIC [3, 33]: 0.78 µg/mL (≈ 0.697 µM) | MIC [4, 39]: 0.2 µg/mL (≈ 0.179 µM) | MIC [5, 34]: 0.1 µg/mL (≈ 0.0894 µM) | MIC [6, 40]: 0.1 µg/mL (≈ 0.0894 µM) | MIC [7, 35]: 0.2 µg/mL (≈ 0.179 µM) | MIC [8, 36]: 3.2 µg/mL (≈ 2.86 µM) | MIC [9, 32]: 0.01 µg/mL (≈ 0.00894 µM) | MIC [10, 37]: 0.2 µg/mL (≈ 0.179 µM) | MIC [11, 32]: 0.01 µg/mL (≈ 0.00894 µM)
